Source: ChEMBL document CHEMBL1250423, “Terpioside B, a difucosyl GSL from the marine sponge Terpios sp. is a potent inhibitor of NO release” (Bioorg Med Chem, 2010)
The source made the active and inactive calls. The calls are words filed in the database; no cut-off is given here.

Target: T1, Nitric oxide synthase, inducible (Mus musculus) (UniProt P29477)
T1 sequence (whole entry): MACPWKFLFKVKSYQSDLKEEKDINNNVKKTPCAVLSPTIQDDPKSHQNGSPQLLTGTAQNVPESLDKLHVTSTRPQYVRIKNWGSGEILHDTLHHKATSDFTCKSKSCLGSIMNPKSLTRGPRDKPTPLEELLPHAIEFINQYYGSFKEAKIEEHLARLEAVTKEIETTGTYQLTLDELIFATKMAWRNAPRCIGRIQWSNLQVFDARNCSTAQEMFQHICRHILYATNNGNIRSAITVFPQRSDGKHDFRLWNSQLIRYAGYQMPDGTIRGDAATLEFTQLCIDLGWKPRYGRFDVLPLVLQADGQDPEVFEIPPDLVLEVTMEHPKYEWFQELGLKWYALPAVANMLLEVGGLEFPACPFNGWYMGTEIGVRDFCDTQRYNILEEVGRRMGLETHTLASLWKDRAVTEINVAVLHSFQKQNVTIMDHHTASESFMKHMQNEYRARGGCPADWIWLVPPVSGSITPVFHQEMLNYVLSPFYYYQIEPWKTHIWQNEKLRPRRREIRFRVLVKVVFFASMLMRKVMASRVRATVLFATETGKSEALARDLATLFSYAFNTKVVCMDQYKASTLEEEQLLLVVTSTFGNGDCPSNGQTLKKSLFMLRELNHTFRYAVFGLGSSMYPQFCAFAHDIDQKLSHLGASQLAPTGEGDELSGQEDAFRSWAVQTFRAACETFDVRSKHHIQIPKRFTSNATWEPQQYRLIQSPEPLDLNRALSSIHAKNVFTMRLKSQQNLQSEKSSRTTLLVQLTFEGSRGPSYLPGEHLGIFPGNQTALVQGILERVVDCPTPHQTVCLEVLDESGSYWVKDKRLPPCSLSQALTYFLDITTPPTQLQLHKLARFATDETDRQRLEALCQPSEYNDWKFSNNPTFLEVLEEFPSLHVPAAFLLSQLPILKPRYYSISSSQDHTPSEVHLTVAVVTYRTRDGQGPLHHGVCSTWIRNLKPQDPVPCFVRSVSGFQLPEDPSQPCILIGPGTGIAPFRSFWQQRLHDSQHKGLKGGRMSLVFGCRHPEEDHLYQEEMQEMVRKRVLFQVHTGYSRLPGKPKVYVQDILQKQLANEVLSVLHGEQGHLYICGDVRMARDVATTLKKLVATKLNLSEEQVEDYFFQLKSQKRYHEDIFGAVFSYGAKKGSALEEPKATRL
Assay: Inhibition of iNOS in mouse J774.2 cells assessed as reduction of LPS-induced nitric oxide production at 1 to 10 uM after 24 hrs by Griess reaction
Assay type: cell-based

Structure (SMILES): CCCCCCCCCCCCCCCCCCCCCC[C@@H](O)C(=O)N[C@@H](CO[C@@H]1O[C@H](CO)[C@@H](O)[C@H](O[C@@H]2O[C@H]([C@H](C)O)[C@@H](O)[C@@H]2O)[C@H]1O)[C@H](O)[C@H](O)CCCCCCCCCCCC(C)CC (stereo partly specified)
- inhibition: Active
